Assay results as given in patent US9465288B2, “Sulfonium salt compound, method for producing the same, and photoacid generator” (DSP GOKYO FOOD & CHEMICAL CO., LTD., priority 2012, dated 2016).

Legend:
[1] = Ultraviolet-visible absorption spectrum, molecular extinction coefficient at 365 nm; type: physicochemical; settings: 1×10^−4 mol/L acetonitrile solution; reference range 50 to 2000
Experimental: A 1×10^−4 mol/L acetonitrile solution of each test compound was prepared, and the molecular extinction coefficient at 365 nm in the ultraviolet-visible absorption spectrum was measured using an ultraviolet-visible spectrophotometer (UV-2400PC, manufactured by SHIMADZU CORPORATION). […] Considering that light would be transmitted to a deep portion of a thick film, the reference range of the molecular extinction coefficient at 365 nm (i-line) was set to 50 to 2000. The sulfonium compounds falling within this range were evaluated as having desirable properties.

[2] = Solubility: amount of PGMEA necessary for dissolving 100 mg of test compound; type: physicochemical; settings: for PGMEA (amount necessary for dissolving the test compound): 100 mg test compound, 20±5° C., 30 minutes with 30-second strong shaking every 5 minutes, 300 μL or less desirable
Experimental: The thus obtained sulfonium salt compounds were used as test compounds. PGMEA was added to 100 mg of each test compound, and the amount of PGMEA necessary for dissolving the test compound therein after the elapse of 30 minutes by repeating 30-second strong shaking at 20±5° C. every 5 minutes was measured. Here, “dissolving” means to reach the state where no insoluble matter can be observed by visual inspection, specifically, means that the resultant solution is clear, or a mixture in an arbitrary ratio becomes transparent. […] In Table 1 below, sulfonium salt compounds with an amount of PGMEA of 300 μL or less were evaluated as having desirable properties.

| SMILES | Molecular extinction coefficient (365 nm) [1] | PGMEA (amount necessary for dissolving the test compound) [2] [µL] | Solubility in PGMEA (in words) ([2]; PGMEA) |
| --- | --- | --- | --- |
| CCCCOc1ccc([S+](CCCC)CCCC)c2c(OCCCC)cccc12.O=S(=O)([N-]S(=O)(=O)C(F)(F)C(F)(F)C(F)(F)C(F)(F)F)C(F)(F)C(F)(F)C(F)(F)C(F)(F)F [Ex. 8, 1-(4,8-di-n-butoxynaphthyl)di-n-butylsulfonium di(1,1,2,2,3,3,4,4,4-nonafluorobutanesulfone)imide] | 620 | 100 |  |
| CCCCOc1ccc2ccc(OCCCC)c([S+](c3ccccc3)c3ccccc3)c2c1.O=S(=O)([N-]S(=O)(=O)C(F)(F)C(F)(F)C(F)(F)C(F)(F)F)C(F)(F)C(F)(F)C(F)(F)C(F)(F)F [C. Ex. 5, 1-(2,7-di-n-butoxynaphthyl)diphenylsulfonium di(1,1,2,2,3,3,4,4,4-nonafluorobutanesulfone)imide, reference compound] | 2930 | 100 |  |
| CCCCOc1ccc2ccc(OCCCC)c([S+](C)C)c2c1.O=S(=O)([N-]S(=O)(=O)C(F)(F)C(F)(F)C(F)(F)C(F)(F)F)C(F)(F)C(F)(F)C(F)(F)C(F)(F)F [Ex. 2, 1-(2,7-di-n-butoxynaphthyl)dimethylsulfonium di(1,1,2,2,3,3,4,4,4-nonafluorobutanesulfone)imide] | 480 | 100 |  |
| CCCCOc1ccc2c(OCCCC)ccc([S+](CCCC)CCCC)c2c1.O=S(=O)([N-]S(=O)(=O)C(F)(F)C(F)(F)C(F)(F)C(F)(F)F)C(F)(F)C(F)(F)C(F)(F)C(F)(F)F [Ex. 3, 1-(4,7-di-n-butoxynaphthyl)di-n-butylsulfonium di(1,1,2,2,3,3,4,4,4-nonafluorobutanesulfone)imide] | 810 | 100 |  |
| O=S1(=O)[N-]S(=O)(=O)C(F)(F)C(F)(F)C1(F)F.c1ccc([S+](c2ccccc2)c2ccccc2)cc1 [C. Ex. 1, triphenylsulfonium 1,1,2,2,3,3-hexafluorotrimethylene imide, reference compound] | 0 | 300 |  |
| CCCCOc1ccc2ccc(OCCCC)c([S+](CCCC)CCCC)c2c1.O=S1(=O)[N-]S(=O)(=O)C(F)(F)C(F)(F)C1(F)F [Ex. 4, 1-(2,7-di-n-butoxynaphthyl)di-n-butylsulfonium 1,1,2,2,3,3-hexafluorotrimethylene sulfone imide] | 700 | 200 |  |
| CCCCOc1ccc2ccc(OCCCC)c([S+](CCCC)CCCC)c2c1.O=S(=O)([N-]S(=O)(=O)C(F)(F)F)C(F)(F)F [Ex. 9, 1-(2,7-di-n-butoxynaphthyl)di-n-butylsulfonium di(1,1,1-trifluoromethanesulfone)imide] | 560 | 200 |  |
| CCCCOc1ccc2ccc(OCCCC)c([S+](CCCC)CCCC)c2c1.O=S(=O)([O-])C(F)(F)C(F)(F)C(F)(F)C(F)(F)F [Ex. 6, 1-(2,7-di-n-butoxynaphthyl)di-n-butylsulfonium 1,1,2,2,3,3,4,4,4-nonafluorobutanesulfonate] | 690 | 100 |  |
| CCCCOc1ccc([S+](CCCC)CCCC)c2c(OCCCC)cccc12.O=S(=O)([N-]S(=O)(=O)C(F)(F)F)C(F)(F)F [Ex. 7, 1-(4,8-di-n-butoxynaphthyl)di-n-butylsulfonium di(1,1,1-trifluoromethanesulfone)imide] | 570 | 100 |  |
| CCCCCCCCOc1ccc2ccc(OCCCCCCCC)c([S+](C)C)c2c1.O=S(=O)([N-]S(=O)(=O)C(F)(F)F)C(F)(F)F [Ex. 11, 1-(2,7-di-n-octoxynaphthyl)dimethylsulfonium di(1,1,1-trifluoromethanesulfone)imide] | 440 | 100 |  |
| CCCCOc1ccc2ccc(OCCCC)c([S+](C(C)C)C(C)C)c2c1.O=S(=O)([N-]S(=O)(=O)C(F)(F)F)C(F)(F)F [Ex. 12, 1-(2,7-di-n-butoxynaphthyl)diisopropyl sulfonium di(1,1,1-trifluoromethanesulfone)imide] | 880 | 100 |  |
| CCCCOc1ccc2c(OCCCC)ccc([S+](CCCC)CCCC)c2c1.O=S(=O)([N-]S(=O)(=O)C(F)(F)F)C(F)(F)F [Ex. 10, 1-(4,7-di-n-butoxynaphthyl)di-n-butylsulfonium di(1,1,1-trifluoromethanesulfone)imide] | 940 | 100 |  |
| O=S(=O)([N-]S(=O)(=O)C(F)(F)C(F)(F)C(F)(F)C(F)(F)F)C(F)(F)C(F)(F)C(F)(F)C(F)(F)F.c1ccc([S+](c2ccccc2)c2ccccc2)cc1 [C. Ex. 4, triphenylsulfonium di(1,1,2,2,3,3,4,4,4-nonafluorobutanesulfone)imide, reference compound] | 0 | 100 |  |
| CCCCOc1cc(OCCCC)c2ccccc2c1[S+](CCCC)CCCC.O=S(=O)([N-]S(=O)(=O)C(F)(F)C(F)(F)C(F)(F)C(F)(F)F)C(F)(F)C(F)(F)C(F)(F)C(F)(F)F [Ex. 5, 1-(2,4-di-n-butoxynaphthyl)di-n-butylsulfonium di(1,1,2,2,3,3,4,4,4-nonafluorobutanesulfone)imide] | 100 | 100 |  |
| CCCCOc1ccc2ccc(OCCCC)c([S+](CCCC)CCCC)c2c1.F[P-](F)(F)(F)(F)F [C. Ex. 3, 1-(2,7-di-n-butoxynaphthyl)di-n-butylsulfonium hexafluorophosphate, reference compound] | 490 | 1900 | exceptionally low solubility in PGMEA |
| COc1ccc2ccc(OC)c([S+](c3ccccc3)c3ccccc3)c2c1.O=S1(=O)[N-]S(=O)(=O)C(F)(F)C(F)(F)C1(F)F [C. Ex. 2, 1-(2,7-dimethoxynaphthyl)diphenylsulfonium 1,1,2,2,3,3-hexafluorotrimethylene sulfone imide, reference compound] | 2010 | 1400 |  |
| CCCCOc1ccc2ccc(OCCCC)c([S+](CCCC)CCCC)c2c1.O=S(=O)([N-]S(=O)(=O)C(F)(F)C(F)(F)C(F)(F)C(F)(F)F)C(F)(F)C(F)(F)C(F)(F)C(F)(F)F [Ex. 1, 1-(2,7-di-n-butoxynaphthyl)di-n-butylsulfonium di(1,1,2,2,3,3,4,4,4-nonafluorobutanesulfone)imide] | 580 | 100 |  |
| CCCCOc1ccc2ccc(OCCCC)c([S+](C(C)C)C(C)C)c2c1.O=S(=O)([N-]S(=O)(=O)C(F)(F)C(F)(F)C(F)(F)C(F)(F)F)C(F)(F)C(F)(F)C(F)(F)C(F)(F)F [Ex. 13, 1-(2,7-di-n-butoxynaphthyl)diisopropyl sulfonium di(1,1,2,2,3,3,4,4,4-nonafluorobutanesulfone)imide] | 1030 | 100 |  |
